The values that follow come from patent publication US10689377B2 (Mirati Therapeutics, Inc., priority 2017, dated 2020).

By IC50 is commonly meant the midpoint of a concentration-inhibition curve.

In this experiment the target is KRas G12C (Homo sapiens, UniProt P01116, G12C). Description: Cellular inhibition of KRas G12C measured by Phospho-ERK in NCI-H358 cells. It counts as cell-based. The conditions noted are these: pERK(Thr202/Tyr204) normalized with GAPDH, NCI-H358 cells, 3 hours; read-out: IC50. In a few lines: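 NCI-H358 cells treated 3 h with compound (0.5% DMSO final), then fixed and methanol-permeabilised. In-cell immunofluorescence measured pERK(Thr202/Tyr204) normalised to GAPDH as percent of DMSO control. IC50 from a 4-parameter dose-response fit.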
Chain of KRas G12C (P01116 1-188 isoform P01116-2 G12C): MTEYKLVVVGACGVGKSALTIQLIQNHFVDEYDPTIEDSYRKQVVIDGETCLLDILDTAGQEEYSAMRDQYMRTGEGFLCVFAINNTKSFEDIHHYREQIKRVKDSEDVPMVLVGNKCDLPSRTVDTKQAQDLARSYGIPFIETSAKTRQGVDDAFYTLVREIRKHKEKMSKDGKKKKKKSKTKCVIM
For the compound `C=CC(=O)N1CCN(c2nc(OC[C@@H]3CN(C)CCN3)nc3c2CCN(c2cccc4ccccc24)C3)CC1CC#N` (stereo partly drawn) [Example 223, 2-(1-acryloyl-4-(2-(((S)-4-methylpiperazin-2-yl)methoxy)-7-(naphthalen-1-yl)-5,6,7,8-tetrahydropyrido[3,4-d]pyrimidin-4-yl)piperazin-2-yl)acetonitrile], the IC50 was 0.0001 to 1 µM.

Turning to `C=CC(=O)N1CCN(c2nc(OC[C@@H]3CCCN3C)nc3c2CCN(c2c(C(F)(F)F)ccc4[nH]ncc24)C3)CC1` [Example 156, (S)-1-(4-(2-((1-methylpyrrolidin-2-yl)methoxy)-7-(5-(trifluoromethyl)-1H-indazol-4-yl)-5,6,7,8-tetrahydropyrido[3,4-d]pyrimidin-4-yl)piperazin-1-yl)prop-2-en-1-one], the IC50 is 0.0001 to 1 µM.

As to `C=CC(=O)N1CCN(c2nc(O[C@H](C)[C@H]3CCCN3C)nc3c2CCN(c2cc(O)cc4ccccc24)C3)C[C@@H]1CC#N` [Example 348, 2-[(2S)-4-[7-(3-hydroxy-1-naphthyl)-2-[(1R)-1-[(2R)-1-methylpyrrolidin-2-yl]ethoxy]-6,8-dihydro-5H-pyrido[3,4-d]pyrimidin-4-yl]-1-prop-2-enoyl-piperazin-2-yl]acetonitrile], the IC50 fell in the range of 0.0001 to 1 µM.

Take `C=CC(=O)N1CCN(c2nc(OC[C@@H]3CCCN3C)nc3c2CCN(c2ncccc2C(F)(F)F)C3)CC1CC#N` (stereo partly drawn) [Example 241]: the IC50 is above 1 µM.

Turning to `C=CC(=O)N1CCN(c2nc(OC[C@@]3(C)CCCN3C)nc3c2CCN(c2cccc(F)c2C(F)(F)F)C3)CC1CC#N` (stereo partly drawn) [Example 418, 2-(1-acryloyl-4-(2-(((R)-1,2-dimethylpyrrolidin-2-yl)methoxy)-7-(3-fluoro-2-(trifluoromethyl)phenyl)-5,6,7,8-tetrahydropyrido[3,4-d]pyrimidin-4-yl)piperazin-2-yl)acetonitrile], the IC50 was in the range of 0.0001 to 1 µM.

With `C=CC(=O)N1CCN(c2nc(OC[C@H]3CN(C)CCO3)nc3c2CCN(c2cccc4ccccc24)C3)CC1CC#N` (stereo partly drawn) [Example 270, 2-(1-acryloyl-4-(2-(((R)-4-methylmorpholin-2-yl)methoxy)-7-(naphthalen-1-yl)-5,6,7,8-tetrahydropyrido[3,4-d]pyrimidin-4-yl)piperazin-2-yl)acetonitrile], the IC50 was 0.0001 to 1 µM.

As to `C=C(C)C(=O)N1CCN(c2nc(OC[C@@H]3CCCN3C)nc3c2CCN(c2cccc4ccccc24)C3)CC1CC#N` (stereo partly drawn) [Example 261, 2-[1-(2-methylprop-2-enoyl)-4-[2-[[(2S)-1-methylpyrrolidin-2-yl]methoxy]-7-(1-naphthyl)-6,8-dihydro-5H-pyrido[3,4-d]pyrimidin-4-yl]piperazin-2-yl]acetonitrile], the IC50 was above 1 µM.

In the case of `C=CC(=O)N1CCN(c2nc(OC[C@@H]3C[C@@H](OC)CN3CC)nc3c2CCN(c2cccc(Cl)c2C(F)(F)F)C3)C[C@@H]1CC#N` [Example 335, 2-[(2S)-4-[7-[3-chloro-2-(trifluoromethyl)phenyl]-2-[[(2S,4R)-1-ethyl-4-methoxy-pyrrolidin-2-yl]methoxy]-6,8-dihydro-5H-pyrido[3,4-d]pyrimidin-4-yl]-1-prop-2-enoyl-piperazin-2-yl]acetonitrile], the IC50 lay within 0.0001 to 1 µM.

As to `C=CC(=O)N1CCN(c2nc(OC[C@@H]3CCCN3C)nc3c2CCN(c2ccccc2OC(F)(F)F)C3)CC1CC#N` (stereo partly drawn) [Example 211, 2-(1-acryloyl-4-(2-(((S)-1-methylpyrrolidin-2-yl)methoxy)-7-(2-(trifluoromethoxy)phenyl)-5,6,7,8-tetrahydropyrido[3,4-d]pyrimidin-4-yl)piperazin-2-yl)acetonitrile], the IC50 was in the range of 0.0001 to 1 µM.

As for `C=CC(=O)N1CCN(c2nc(O[C@@H](C)CN(C)C)nc3c2CCN(c2cc(O)cc4ccccc24)C3)CC1` [Example 8, (S)-1-(4-(2-((1-(dimethylamino)propan-2-yl)oxy)-7-(3-hydroxynaphthalen-1-yl)-5,6,7,8-tetrahydropyrido[3,4-d]pyrimidin-4-yl)piperazin-1-yl)prop-2-en-1-one], the IC50 is above 1 µM.

For the compound `C=CC(=O)N1CCN(c2nc(OC[C@@H]3CCN(C)C3)nc3c2CCN(c2cc(O)cc4ccccc24)C3)CC1CC#N` (stereo partly drawn) [Example 179, 2-[4-[7-(3-hydroxy-1-naphthyl)-2-[[(3R)-1-methylpyrrolidin-3-yl]methoxy]-6,8-dihydro-5H-pyrido[3,4-d]pyrimidin-4-yl]-1-prop-2-enoyl-piperazin-2-yl]acetonitrile], the IC50 lay in the range of 0.0001 to 1 µM.

Consider `C=C(NC(C)=O)C(=O)N1CCN(c2nc(OC[C@@H]3CCCN3C)nc3c2CCN(c2cccc4cccc(C)c24)C3)C[C@@H]1CC#N` [Example 525, N-(3-((S)-2-(cyanomethyl)-4-(7-(8-methylnaphthalen-1-yl)-2-(((S)-1-methylpyrrolidin-2-yl)methoxy)-5,6,7,8-tetrahydropyrido [3,4-d]pyrimidin-4-yl)piperazin-1-yl)-3-oxoprop-1-en-2-yl)acetamide], for which the IC50 lay within 0.0001 to 1 µM.

With `C=CC(=O)N1CCN(c2nc(OCCCN3C[C@@H]4C[C@H]3CO4)nc3c2CCN(c2cccc4cccc(C)c24)C3)C[C@@H]1CC#N` [Example 369, 2-((S)-4-(2-(3-((1S,4S)-2-oxa-5-azabicyclo[2.2.1]heptan-5-yl)propoxy)-7-(8-methylnaphthalen-1-yl)-5,6,7,8-tetrahydropyrido[3,4-d]pyrimidin-4-yl)-1-acryloylpiperazin-2-yl)acetonitrile], the IC50 is 0.0001 to 1 µM.

As for `C=CC(=O)N1CCN(c2nc(OC[C@@H]3CC(F)(F)CN3C)nc3c2CCN(c2cccc4ccccc24)C3)C[C@@H]1CC#N` [Example 447, 2-((S)-1-Acryloyl-4-(2-(((S)-4,4-difluoro-1-methylpyrrolidin-2-yl)methoxy)-7-(naphthalen-1-yl)-5,6,7,8-tetrahydropyrido[3,4-d]pyrimidin-4-yl)piperazin-2-yl)acetonitrile], the IC50 lay in the range of 0.0001 to 1 µM.

`C=CC(=O)N1CCN(c2nc(OC[C@@H]3CCCN3C)nc3c2CCN(c2cccc(Cl)c2CC)C3)C[C@@H]1CC#N` [Example 337, 2-[(2S)-4-[7-(3-chloro-2-ethyl-phenyl)-2-[[(2S)-1-methylpyrrolidin-2-yl]methoxy]-6,8-dihydro-5H-pyrido[3,4-d]pyrimidin-4-yl]-1-prop-2-enoyl-piperazin-2-yl]acetonitrile]: the IC50 lay within 0.0001 to 1 µM.

Take `C/C=C/C(=O)N1CCN(c2nc(OC[C@@H]3CCCN3C)nc3c2CCN(c2cc(O)cc4ccccc24)C3)CC1` [Example 198, (S,E)-1-(4-(7-(3-hydroxynaphthalen-1-yl)-2-((1-methylpyrrolidin-2-yl)methoxy)-5,6,7,8-tetrahydropyrido[3,4-d]pyrimidin-4-yl)piperazin-1-yl)but-2-en-1-one]: the concentration for half-maximal inhibition (IC50) was above 1 µM.

For the compound `C=CC(=O)N1CCN(c2nc(OC[C@H]3C[C@H](O)CN3C)nc3c2CCN(c2cccc4ccccc24)C3)C[C@@H]1CC#N` [Example 323, 2-[(2S)-4-[2-[[(2R,4S)-4-hydroxy-1-methyl-pyrrolidin-2-yl]methoxy]-7-(1-naphthyl)-6,8-dihydro-5H-pyrido[3,4-d]pyrimidin-4-yl]-1-prop-2-enoyl-piperazin-2-yl]acetonitrile], the IC50 fell in the range of 0.0001 to 1 µM.

For the compound `C=CC(=O)N1CCN(c2nc(OCCC(=O)N(C)C)nc3c2CCN(c2cccc4cccc(C)c24)C3)C[C@@H]1CC#N` [Example 371, (S)-3-((4-(4-acryloyl-3-(cyanomethyl)piperazin-1-yl)-7-(8-methylnaphthalen-1-yl)-5,6,7,8-tetrahydropyrido[3,4-d]pyrimidin-2-yl)oxy)-N,N-dimethylpropanamide], the IC50 lay in the range of 0.0001 to 1 µM.

Consider `C=CC(=O)N1CCN(c2nc(OCCCN3C[C@@H]4C[C@H]3CO4)nc3c2CCN(c2cccc4cccc(Cl)c24)C3)C[C@@H]1CC#N` [Example 365, 2-[(2S)-4-[7-(8-chloro-1-naphthyl)-2-[3-[(1S,4S)-2-oxa-5-azabicyclo[2.2.1]heptan-5-yl]propoxy]-6,8-dihydro-5H-pyrido[3,4-d]pyrimidin-4-yl]-1-prop-2-enoyl-piperazin-2-yl]acetonitrile], for which the IC50 lay in the range of 0.0001 to 1 µM.

`C=CC(=O)N1CCN(c2nc(OCCN(CC)CC)nc3c2CCN(c2ccccc2C(F)(F)F)C3)CC1CC#N` (stereo not drawn) [Example 300, 2-[4-[2-[2-(diethylamino)ethoxy]-7-[2-(trifluoromethyl)phenyl]-6,8-dihydro-5H-pyrido[3,4-d]pyrimidin-4-yl]-1-prop-2-enoyl-piperazin-2-yl]acetonitrile]: the IC50 lay in the range of 0.0001 to 1 µM.

Regarding `C=CC(=O)N1CCN(c2nc(OC[C@@H]3CCCN3C)nc3c2CCN(c2ccnc4ccccc24)C3)CC1CC#N` (stereo partly drawn) [Example 295, 2-[4-[2-[[(2S)-1-methylpyrrolidin-2-yl]methoxy]-7-(4-quinolyl)-6,8-dihydro-5H-pyrido[3,4-d]pyrimidin-4-yl]-1-prop-2-enoyl-piperazin-2-yl]acetonitrile], the IC50 is above 1 µM.

Turning to `C=CC(=O)N1CCN(c2nc(O[C@H](C)CN(C)C)nc3c2CCN(c2cc(O)cc4ccccc24)C3)[C@@H](C)C1` [Example 115, 1-((S)-4-(2-(((R)-1-(dimethylamino)propan-2-yl)oxy)-7-(3-hydroxynaphthalen-1-yl)-5,6,7,8-tetrahydropyrido[3,4-d]pyrimidin-4-yl)-3-methylpiperazin-1-yl)prop-2-en-1-one], the IC50 was in the range of 0.0001 to 1 µM.

As for `CN(C)C/C=C(/F)C(=O)N1CCN(c2nc(OC[C@@H]3CCCN3C)nc3c2CCN(c2cccc4cccc(Cl)c24)C3)C[C@@H]1CC#N` [Example 503, 2-[(2S)-4-[7-(8-chloro-1-naphthyl)-2-[[(2S)-1-methylpyrrolidin-2-yl]methoxy]-6,8-dihydro-5H-pyrido[3,4-d]pyrimidin-4-yl]-1-[(E)-4-(dimethylamino)-2-fluoro-but-2-enoyl]piperazin-2-yl]acetonitrile], the IC50 was above 1 µM.

For the compound `C=CC(=O)N1CCN(c2nc(OCCN(C)C)nc3c2CCN(c2cc(O)cc4ccccc24)C3)C(CCO)C1` (stereo not drawn) [Example 172, 1-(4-(2-(2-(dimethylamino)ethoxy)-7-(3-hydroxynaphthalen-1-yl)-5,6,7,8-tetrahydropyrido[3,4-d]pyrimidin-4-yl)-3-(2-hydroxyethyl)piperazin-1-yl)prop-2-en-1-one], the IC50 was above 1 µM.
